Reference: ChEMBL document CHEMBL5316352, “Puromycin Prodrug Activation by Thioredoxin Reductase Overcomes Its Promiscuous Cytotoxicity” (J Med Chem, 2023)
The source made the active and inactive calls. The rule behind the calls is not given here.

What was measured:
HL-60 [1] = experiment: Potency index, ratio of test compound IC50 to puromycin IC50 for cytotoxicity against human HL-60 cells; assay type: functional
[2] = Stability in human plasma assessed as parent compound remaining at 100 uM measured after 48 hrs by HPLC analysis; assay type: ADME, cell-free; conditions: read-out: Stability
[3] = Stability of compound in PBS at pH 7.4 assessed as parent compound remaining at 100 uM measured after 48 hrs by HPLC analysis; assay type: physicochemical; conditions: read-out: Stability
HepG2 [4] = experiment: Cytotoxicity against human HepG2 cells with high TrxR expression assessed as reduction in cell viability incubated for 48 hrs by MTT assay; assay type: functional, cell-based; conditions: HepG2, 48 h
BEAS-2B = experiment: Potency index, ratio of test compound IC50 to puromycin IC50 for cytotoxicity against human BEAS-2B cells; assay type: functional
[5] = (§1) Prodrug activation in human HeLa cell lysate assessed as reduction in 1,2-dithiolan-4-yl ((S)-1-(((2S,3S,4R,5R)-5-(6-(dimethylamino)-9H-purin-9-yl)-4-hydroxy-2-(hydroxymethyl)tetrahydrofuran-3-yl)amino)-3-(4-methoxyphenyl)-1-oxopropan-2-yl)carbamate level by measuring absorbance at 340 nm at 150 uM pretreated with TrxR inhibitor AF for 30 mins followed by compound addition in presence of NADPH; assay type: ADME, subcellular
[6] = Prodrug activation assessed as increase in TrxR (unknown origin) mediated NADPH oxidation by measuring absorbance at 340 nm at 150 uM; conditions: human
HEK-293T = experiment: Potency index, ratio of test compound IC50 to puromycin IC50 for cytotoxicity against human HEK293T cells; assay type: functional
HepG2 [7] = experiment: Cytotoxicity against human HepG2 cells expressing shNT assessed as reduction in cell viability incubated for 48 hrs by MTT assay; assay type: functional, cell-based; conditions: HepG2, 48 h
HeLa [8] = experiment: Potency index, ratio of test compound IC50 to puromycin IC50 for cytotoxicity against human HeLa cells; assay type: functional
HepG2 [9] = experiment: Potency index, ratio of test compound IC50 to puromycin IC50 for cytotoxicity against human HepG2 cells; assay type: functional
HL-60 [10] = experiment: Cytotoxicity against human HL-60 cells with low TrxR expression assessed as reduction in cell viability incubated for 48 hrs by MTT assay; assay type: functional, cell-based; conditions: HL-60, 48 h
[11] = biological target: T1, Thioredoxin (Homo sapiens) (UniProt P10599); experiment: (§2) Substrate activity at Trx (unknown origin) assessed as reduction in 1,2-dithiolan-4-yl ((S)-1-(((2S,3S,4R,5R)-5-(6-(dimethylamino)-9H-purin-9-yl)-4-hydroxy-2-(hydroxymethyl)tetrahydrofuran-3-yl)amino)-3-(4-methoxyphenyl)-1-oxopropan-2-yl)carbamate level by measuring absorbance at 340 nm at 150 uM in presence of NADPH
T1 sequence (whole entry): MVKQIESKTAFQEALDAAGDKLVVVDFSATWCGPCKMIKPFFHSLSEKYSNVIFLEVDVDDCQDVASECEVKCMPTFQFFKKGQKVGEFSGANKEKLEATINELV

[12] = Cytotoxicity against human HEK293T cells with low TrxR expression assessed as reduction in cell viability incubated for 48 hrs by MTT assay; assay type: toxicity, cell-based, HEK-293T
HepG2 [13] = experiment: Cytotoxicity against human HepG2 cells expressing shTXNRD1 assessed as reduction in cell viability incubated for 48 hrs by MTT assay; assay type: functional, cell-based; conditions: HepG2, 48 h
[14] = as §1, with “lysate expressing shTXNRD1” for “lysate”; assay type: ADME, subcellular
[15] = Stability in mouse plasma assessed as parent compound remaining at 100 uM measured after 48 hrs by HPLC analysis; assay type: ADME, cell-free; conditions: read-out: Stability
MCF7 [16] = experiment: Potency index, ratio of test compound IC50 to puromycin IC50 for cytotoxicity against human MCF7 cells; assay type: functional
MCF7 [17] = experiment: Cytotoxicity against human MCF7 cells with low TrxR expression assessed as reduction in cell viability incubated for 48 hrs by MTT assay; assay type: functional, cell-based; conditions: MCF7, 48 h
[18] = Cytotoxicity against human BEAS-2B cells with low TrxR expression assessed as reduction in cell viability incubated for 48 hrs by MTT assay; assay type: toxicity, cell-based
HeLa [19] = experiment: Cytotoxicity against human HeLa cells with high TrxR expression assessed as reduction in cell viability incubated for 48 hrs by MTT assay; assay type: functional, cell-based
[20] = Prodrug conversion in human HepG2 cells assessed as inhibition of proteome incorporation at 1 uM pretreated with AF for 30 mins followed by compound addition; assay type: cell-based; conditions: hepg2, 1 µM
[21] = Prodrug activation in human HepG2 cells assessed as increase in rhodamine labelling at 10 uM incubated for 12 hrs by in-gel fluorescence imaging analysis; assay type: cell-based; conditions: hepg2, 12 h
[22] = Prodrug activation in human HepG2 cells assessed as increase in biotin labelling at 10 uM incubated for 12 hrs by Western blotting analysis; assay type: cell-based; conditions: hepg2, 12 h
[23] = Prodrug conversion in human HepG2 cells assessed as proteome incorporation at 1 uM pretreated with AF for 30 mins followed by compound addition; assay type: ADME, cell-based; conditions: hepg2, 1 µM
[24] = Prodrug activation in human HepG2 cells assessed as increase in biotin labelling at 1 uM incubated for 12 hrs by Western blotting analysis; assay type: cell-based; conditions: hepg2, 12 h
[25] = Prodrug activation in human HepG2 cells assessed as increase in rhodamine labelling at 1 uM incubated for 12 hrs by in-gel fluorescence imaging analysis; assay type: cell-based; conditions: hepg2, 12 h
[26] = Prodrug activation assessed as TrxR (unknown origin) mediated compound reduction by measuring absorbance at 340 nm at 150 uM in presence of NADPH; conditions: human
[27] = biological target: T1, Thioredoxin (Homo sapiens); experiment: as §2, with “2-((2-hydroxyethyl)disulfaneyl)ethyl” for “1,2-dithiolan-4-yl”
[28] = Prodrug activation assessed as GSH mediated compound reduction by measuring absorbance at 340 nm at 150 uM in presence of NADPH

Row | remaining at 48 h, 100 µM [2] | remaining at 48 h, 100 µM [3] | remaining at 48 h, 100 µM [15] | Compound | IC50 (HepG2 [4]) | IC50 (HL-60 [10]) | IC50 at 48 h [12] | IC50 (MCF7 [17]) | IC50 at 48 h [18] | IC50 (HeLa [19]) | further results
1 | > 90% | > 90% | > 90% | COc1ccc(C[C@H](NC(=O)OC2CSSC2)C(=O)N[C@H]2[C@@H](O)[C@H](n3cnc4c(N(C)C)ncnc43)O[C@@H]2CO)cc1 | 8.08 µM | 55 µM | 19.5 µM | 14.2 µM | 8.42 µM | 6.08 µM | Ratio IC50 (HL-60 [1]): 14.7; Ratio IC50 (BEAS-2B): 11.4; Drug metabolism [5]: Metabolite_Notdetected; Activity [6]: Active; Ratio IC50 (HEK-293T): 15.2; IC50 (HepG2 [7]): 4.88 µM; Ratio IC50 (HeLa [8]): 6.8; Ratio IC50 (HepG2 [9]): 6.3; Activity [11]: Active; IC50 (HepG2 [13]): 11.3 µM; Drug metabolism [14]: Metabolite_Notdetected; Ratio IC50 (MCF7 [16]): 13.4
2 | > 90% | > 90% | > 90% | COc1ccc(C[C@H](NC(=O)OC2CCCC2)C(=O)N[C@H]2[C@@H](O)[C@H](n3cnc4c(N(C)C)ncnc43)O[C@@H]2CO)cc1 | > 40 µM | > 40 µM | > 40 µM | > 40 µM | > 40 µM | > 40 µM | Drug metabolism [26]: Metabolite_Notdetected

Further lines, the compound ahead of its results:

Row | Compound | remaining at 48 h, 100 µM [2] | remaining at 48 h, 100 µM [3] | remaining at 48 h, 100 µM [15] | IC50 (HepG2 [4]) | IC50 (HL-60 [10]) | IC50 at 48 h [12] | IC50 (MCF7 [17]) | IC50 at 48 h [18] | IC50 (HeLa [19]) | further results
3 | C#CCOc1ccc(C[C@H](NC(=O)OC2CSSC2)C(=O)N[C@H]2[C@@H](O)[C@H](n3cnc4c(N(C)C)ncnc43)O[C@@H]2CO)cc1 |  |  |  |  |  |  |  |  |  | inhibition (INH) [20]: Active; Activity [21]: Active; Activity [22]: Active
4 | C#CCOc1ccc(C[C@H](N)C(=O)N[C@H]2[C@@H](O)[C@H](n3cnc4c(N(C)C)ncnc43)O[C@@H]2CO)cc1 |  |  |  |  |  |  |  |  |  | Activity [23]: Active; Activity [24]: Active; Activity [25]: Active
5 | COc1ccc(C[C@H](N)C(=O)N[C@H]2[C@@H](O)[C@H](n3cnc4c(N(C)C)ncnc43)O[C@@H]2CO)cc1 [PUROMYCIN] |  |  |  | 1.29 µM | 3.73 µM | 1.28 µM | 1.06 µM | 0.74 µM | 0.9 µM | 
6 | COc1ccc(C[C@H](NC(=O)OCCSSCCO)C(=O)N[C@H]2[C@@H](O)[C@H](n3cnc4c(N(C)C)ncnc43)O[C@@H]2CO)cc1 | 29% | > 90% | 42% | 9.27 µM | 56.7 µM | 24.7 µM | 27.5 µM | 12.6 µM | 6.84 µM | Activity [27]: Active; Activity [28]: Active
7 | COc1ccc(C[C@H](NC(=O)OCCCCCCO)C(=O)N[C@H]2[C@@H](O)[C@H](n3cnc4c(N(C)C)ncnc43)O[C@@H]2CO)cc1 | > 90% | > 90% | > 90% | > 40 µM | > 40 µM | > 40 µM | > 40 µM | > 40 µM | > 40 µM | Drug metabolism [26]: Metabolite_Notdetected
